From patent US7230033B2, “Pest control compositions and methods for their use” (United States of America as represented by the Secretary of …, priority 2000, dated 2007)

Experiments:
[1] = tested on: adult I. scapularis ticks; assay: Treated-vial biocidal screening with 2% acetone solutions (Example 2), adult ticks, residual; type: in vivo, Ixodes scapularis; conditions: treated vials sat 4 wk; arthropods added for the final 24 h
Procedure: (§1) Samples of the compounds listed below were obtained as described in Example 1, and screened for biocidal activities against nymphal Ixodes scapularis. In this example, 2% acetone solutions (wt/vol) of the compounds were applied to inner surfaces of 2-dram friction cap vials. Vials and caps were treated then allowed to dry for a minimum of 4 hours before placing 10 nymphs in each container. These same vials were used to challenge additional nymphs and adult I. scapularis ticks and adult Xenopsylla cheopis fleas through five weeks to observe any possible residual activity.
(§2) Numbers in parentheses refer to length of treatment in terms of hours (h) or weeks (wk). Data is presented in terms of number killed/number tested. For test periods longer than 24 hours, the treated vials were allowed to sit for the stated period after drying (72 h, 4 wk, or 5 wk) and each group of arthropods was added to the vials for the final 24 h of the test period.

[2] = tested on: Xenopsylla cheopis adults; assay: Residual activity, aged treated vials, fleas; type: in vivo
Procedure: Briefly, groups of 10 nymphal I. scapularis and X. cheopis fleas were used in all tests (more than a total of 5,240 nymphs and 4,860 fleas were exposed to the compounds). The inner surface of 2-dram friction cap vials were treated with the compound/acetone solution, or acetone only as a control, and left to air-dry overnight (see also, Panella et al., J. Med. Entomol., 42(3):352-358, 2005. Three to 4 holes were made in the plastic cap to allow for air exchange. Nymphal ticks and adult fleas were then placed directly into the vials using forceps. Vials containing ticks or fleas were placed in desiccators for 24 h at 21° C. and 90% RH. Morbidity and mortality was recorded at 1, 2, 4, 8, and 24 h after initial exposure.

[3] = tested on: adult Xenopsylla cheopis fleas; assay: Treated-vial biocidal screening with 2% acetone solutions (Example 2), adult fleas, residual; type: in vivo; conditions: treated vials sat 5 wk; arthropods added for the final 24 h
Procedure: as §1, §2

[4] = tested on: nymphal Ixodes scapularis; assay: Treated-vial biocidal screening with 2% acetone solutions (Example 2), tick nymphs; type: in vivo; conditions: treated vials sat 72 h; arthropods added for the final 24 h
Procedure: as §1, §2

[5] = tested on: fourth-instar Aedes aegypti larvae; assay: Larval mosquito bioassay; type: in vivo; conditions: Aedes aegypti larval mosquitoes; concentration of the 1 ml added to 150 ml water
Procedure: Individual groups of 10 fourth-instar Aedes aegypti larvae were contained in 150 ml of water and exposed to […] of essential oils prepared by 2-fold serial dilutions ranging from 0.06%–5.0% in 1 ml of acetone. A control group of larvae were exposed to 1 ml of acetone only.
It is important to note that larval mosquitoes are tested in their natural environment, i.e., in water. The particular assays used herein involved groups of 10 larval mosquitoes in 150 ml of water. The weight percentages reported for lethal concentration for larval mosquitoes are the weight percentages added to the 150 ml water (as opposed to the final percentage of the tested compound(s) in the 150 ml water). As one of skill in the art will appreciate, test compound(s) added to a volume of water (such as, 150 ml) can be dramatically diluted depending upon the water solubility of the tested compound. […] If the tested compound is an oil (such as, carvacrol, nootkatone, or 13-hydroxy-valencene), it most likely floats on the surface of the water.

[6] = tested on: ticks, fleas, and mosquitoes; assay: Residual activity, general statements (Examples 9, 17); type: in vivo; conditions: ticks
Aedes aegypti adults = assay: Residual activity, aged treated bottles, mosquitoes; type: in vivo
I. scapularis nymphs = assay: Tick bioassay, treated 2-dram vials, probit analysis; type: in vivo, Ixodes scapularis
Text: A control treated with acetone only was run with each series.
For each time point, if ticks and fleas were incapable of movement, maintaining normal posture, leg coordination, ability to right themselves, or any signs of life, they were considered moribund or dead.

Culex p. pipiens = assay: Mosquito susceptibility, serial dilutions (Example 8); conditions: in vivo
Aedes aegypti = assay: as above; conditions: in vivo
X. cheopis adults = assay: Flea bioassay, treated 2-dram vials, probit analysis; type: in vivo, Xenopsylla cheopis; conditions: 24 h exposure
Ae. aegypti adults = assay: Adult mosquito bottle bioassay; type: in vivo, Aedes aegypti
[7] = 24 h exposure, NE = not effective at concentrations tested
[8] = Ixodes scapularis nymphal ticks, alone, or 1:1 with carvacrol (in parenthesis)
[9] = Aedes aegypti adult mosquitoes, alone, or 1:1 with carvacrol (in parenthesis)

`C=C(C)[C@@H]1CCC2=CC(=O)C[C@@H](C)[C@]2(C)C1` [Compound 7, Nootkatone] was tested, and the “I. scapularis adults (4 wk), number killed/number tested” value [1] was 5/5, the “Slope, residual activity” value ([2]; 1 week after treatment) was 2.546 and the “LC90, residual activity” value ([2]; 1 week after treatment, NE = not effective) was 0.05 percent concentration, wt:vol. The “Slope, residual activity” value ([2]; 2 weeks after treatment) was 2.033, the “LC50, residual activity” value ([2]; 4 weeks after treatment) was 0.031 percent concentration, wt:vol and the “X. cheopis adults (5 wk), number killed/number tested” value [3] was 5/5. For the same compound, the “I. scapularis nymphs (72 h), number killed/number tested” value [4] was 5/5, the “LC50 (1 h)” value [5] was 5.327 % (wt:vol) and the “LC50 (24 h)” value [5] was 1.605 % (wt:vol). The “LC90 (1 hr)” value [5] was 14.045 % (wt:vol), the “LC90 (24 h)” value [5] was 2.59 % (wt:vol) and the residual activity [6] was “considerable biological activity through the four week time period”. For the same compound, the “LC90, residual activity” value (Aedes aegypti adults; 1 week after treatment) was 0.054 percent concentration, wt:vol, the “Slope, residual activity” value (Aedes aegypti adults; 1 week after treatment) was 3.043 and the “Slope, residual activity” value (Aedes aegypti adults; 2 weeks after treatment) was 3.342. The “LC90, residual activity” value (Aedes aegypti adults; 2 weeks after treatment, NE = not effective) was 0.046 percent concentration, wt:vol, the “Slope, residual activity” value (Aedes aegypti adults; 4 weeks after treatment) was 2.698 and the “LC90, residual activity” value (Aedes aegypti adults; 4 weeks after treatment, NE = not effective) was 0.038 percent concentration, wt:vol. The LC90 (I. scapularis nymphs; [7]) was 0.0055 percent concentration, wt:vol, the Slope (I. scapularis nymphs; 24 h exposure, probit) was 4.708 and the “LC50 (1 h)” value (I. scapularis nymphs; [8]) was 0.126 % (wt:vol). For the same compound, the “LC50 (24 h)” value (I. scapularis nymphs; [8]) was 0.0029 % (wt:vol), the “LC90 (1 hr)” value (I. scapularis nymphs; [8]) was 0.725 % (wt:vol) and the “LC90 (24 h)” value (I. scapularis nymphs; [8]) was 0.0055 % (wt:vol). For the same compound, the “LC50 (24 h)” value (I. scapularis nymphs; Ixodes scapularis nymphal ticks, alone, or 1:1 with carvacrol (in parenthesis), listed as compound 7) was 0.0029 % (wt:vol), the “C. pipiens. LD50” value (Culex p. pipiens) was <4.5 × 10^−3 and the “A. aegypti LD50” value (Aedes aegypti) was <4.5 × 10^−3. The LC90 (X. cheopis adults; NE = not effective at concentrations tested) was 0.019 percent concentration, wt:vol, the Slope (X. cheopis adults; probit) was 3.527 and the LC90 (Ae. aegypti adults; [7]) was 0.0092 percent concentration, wt:vol. The Slope (Ae. aegypti adults; 24 h exposure, probit) was 6.22, the “LC50 (15 min)” value (Ae. aegypti adults; [9]) was 0.035 % (wt:vol) and the “LC50 (24 h)” value (Ae. aegypti adults; [9]) was 0.0057 % (wt:vol). The “LC90 (15 min)” value (Ae. aegypti adults; [9]) was 0.119 % (wt:vol), the “LC90 (24 h)” value (Ae. aegypti adults; [9]) was 0.0092 % (wt:vol) and the “LC50 (15 min)” value (Ae. aegypti adults; Aedes aegypti adult mosquitoes, alone, or 1:1 with carvacrol (in parenthesis), listed as compound 7) was 0.035 % (wt:vol).
